The text below walks through data of patent publication US20250179050A1, “POLYMORPH AS THYROID HORMONE RECEPTOR AGONISTS AND USE THEREOF” (XIZANG HAISCO PHARMACEUTICAL CO., LTD., priority 2022, published 2025).

Molecules are shown by their SMILES.

The data set is described as follows: Thermal crystal transformation test (hot stage, XRPD). The class given is physicochemical. To be noted: for Results (crystal form after thermal crystal transformation, XRPD): heating rate 10° C./min, holding time 1 min. The procedure: The present invention further provides a method for preparing the polymorph of any one of Form A to Form Z, including: • (1) suspension method: adding a crude free base of the compound of formula I (which can be prepared according to the methods described in WO 2019240938 A1) to a selected single or binary solvent until a suspension is formed and stirring same under suspension at room temperature to 50° C. for a period of time (e.g., 1 h to 3 days, or 2 h to 24 h, or 2 h to 12 h, or 3 h to 5 h), and then centrifuging and separating the suspension, followed by drying, to obtain the product; or • (2) Anti-solvent crystallization method: adding a crude free base of the compound of formula I to an appropriate amount of a good solvent until completely dissolved, taking an amount of the solution and dropwise adding same to a poor solvent or dropwise adding a poor solvent to the solution, and stirring same to precipitate a solid, followed by separation and drying to obtain the product; or • (3) cooling method: adding a crude free base of the compound of formula I to an appropriate amount of a solvent at 50-80° C. until the solid is just completely dissolved, and transferring the solution to an environment at room temperature for cooling, followed by leaving to stand or crystallization under stirring, separation and drying to obtain the product; or • (4) vapor diffusion method: dropwise adding an appropriate amount of a good solvent to an amount of a crude free base of the compound of formula I at room temperature to completely dissolve the sample or formulating same as a saturated solution of a good solvent; and separately taking an amount of the solution, and leaving the clear solution to stand in a poor solvent atmosphere at room temperature until a solid precipitates out, followed by separation, to obtain the product; or • (5) thermal crystal transformation method: placing an amount of the sample on a glass plate on a hot stage, heating same to the target temperature at a rate (e.g., 5-20° C./min, or 10-15° C./min), and maintaining the temperature for a period of time (e.g., 0.5-5 min, or 1-3 min, or 1-2 min), followed by naturally cooling down to room temperature to obtain a solid.
The different crystal forms, as raw materials, were heated to the target temperature on a hot table and held for 1 min, and cooled to room temperature to obtain solids for the XRPD test.

For the molecule `[2H]C([2H])([2H])[C@@H]1CCc2c(Oc3c(Cl)cc(-n4nc(C#N)c(=O)[nH]c4=O)cc3Cl)n[nH]c(=O)c21` [Form A, (R)-2-(3,5-dichloro-4-((7-(methyl-d3)-1-oxo-2,5,6,7-tetrahydro-1H-cyclopenta [d]pyridazin-4-yl)oxy)phenyl)-3,5-dioxo-2,3,4,5-tetrahydro-1,2,4-triazine-6-carbonitrile], the “crystal form after thermal crystal transformation” value is, setting by setting: (heated to 150° C.) “Form A”; (heated to 300° C.) “Form C”. Moreover, the “Results (crystal form after thermal crystal transformation, XRPD)” value (“Results” below) is recorded as “Form A” (target temperature 150° C.) and “Form C” (target temperature 300° C.). For `[2H]C([2H])([2H])[C@@H]1CCc2c(Oc3c(Cl)cc(-n4nc(C#N)c(=O)[nH]c4=O)cc3Cl)n[nH]c(=O)c21` [Form E, (R)-2-(3,5-dichloro-4-((7-(methyl-d3)-1-oxo-2,5,6,7-tetrahydro-1H-cyclopenta [d]pyridazin-4-yl)oxy)phenyl)-3,5-dioxo-2,3,4,5-tetrahydro-1,2,4-triazine-6-carbonitrile], the “crystal form after thermal crystal transformation” value (by desolvation) was “Form C”. Besides, the “Results” value (target temperature 180° C.) is recorded as “Form C”. As to `[2H]C([2H])([2H])[C@@H]1CCc2c(Oc3c(Cl)cc(-n4nc(C#N)c(=O)[nH]c4=O)cc3Cl)n[nH]c(=O)c21` [Form F, (R)-2-(3,5-dichloro-4-((7-(methyl-d3)-1-oxo-2,5,6,7-tetrahydro-1H-cyclopenta [d]pyridazin-4-yl)oxy)phenyl)-3,5-dioxo-2,3,4,5-tetrahydro-1,2,4-triazine-6-carbonitrile], the “crystal form after thermal crystal transformation” value (heated to 230° C. or more) was “Form C”. In addition, under “target temperature 230° C.”, the “Results” value was “Form C”. In the case of `[2H]C([2H])([2H])[C@@H]1CCc2c(Oc3c(Cl)cc(-n4nc(C#N)c(=O)[nH]c4=O)cc3Cl)n[nH]c(=O)c21` [Form J, (R)-2-(3,5-dichloro-4-((7-(methyl-d3)-1-oxo-2,5,6,7-tetrahydro-1H-cyclopenta [d]pyridazin-4-yl)oxy)phenyl)-3,5-dioxo-2,3,4,5-tetrahydro-1,2,4-triazine-6-carbonitrile], the “Results” value (target temperature 160° C.) was “Form C”. `[2H]C([2H])([2H])[C@@H]1CCc2c(Oc3c(Cl)cc(-n4nc(C#N)c(=O)[nH]c4=O)cc3Cl)n[nH]c(=O)c21` [Form K, (R)-2-(3,5-dichloro-4-((7-(methyl-d3)-1-oxo-2,5,6,7-tetrahydro-1H-cyclopenta [d]pyridazin-4-yl)oxy)phenyl)-3,5-dioxo-2,3,4,5-tetrahydro-1,2,4-triazine-6-carbonitrile]: the “crystal form after thermal crystal transformation” value (heated to 260° C. or more) is recorded as “Form C”. As for `[2H]C([2H])([2H])[C@@H]1CCc2c(Oc3c(Cl)cc(-n4nc(C#N)c(=O)[nH]c4=O)cc3Cl)n[nH]c(=O)c21` [Form L, (R)-2-(3,5-dichloro-4-((7-(methyl-d3)-1-oxo-2,5,6,7-tetrahydro-1H-cyclopenta [d]pyridazin-4-yl)oxy)phenyl)-3,5-dioxo-2,3,4,5-tetrahydro-1,2,4-triazine-6-carbonitrile], the “crystal form after thermal crystal transformation” value by setting is: (heated to 100° C.) “Form A”; (heated to 190° C.) “Form C”. Also, the “Results” value is, setting by setting: (target temperature 100° C.) “Form A”; (target temperature 190° C.) “Form C”.

In the case of `[2H]C([2H])([2H])[C@@H]1CCc2c(Oc3c(Cl)cc(-n4nc(C#N)c(=O)[nH]c4=O)cc3Cl)n[nH]c(=O)c21` [Form M, (R)-2-(3,5-dichloro-4-((7-(methyl-d3)-1-oxo-2,5,6,7-tetrahydro-1H-cyclopenta [d]pyridazin-4-yl)oxy)phenyl)-3,5-dioxo-2,3,4,5-tetrahydro-1,2,4-triazine-6-carbonitrile], the “Results” value (target temperature 260° C.) is “Form C”. Take `[2H]C([2H])([2H])[C@@H]1CCc2c(Oc3c(Cl)cc(-n4nc(C#N)c(=O)[nH]c4=O)cc3Cl)n[nH]c(=O)c21` [Form N, (R)-2-(3,5-dichloro-4-((7-(methyl-d3)-1-oxo-2,5,6,7-tetrahydro-1H-cyclopenta [d]pyridazin-4-yl)oxy)phenyl)-3,5-dioxo-2,3,4,5-tetrahydro-1,2,4-triazine-6-carbonitrile]: the “crystal form after thermal crystal transformation” value (heated to 235° C. or more) is given as “Form C with a slightly less crystallinity”. In addition, under “target temperature 235° C.”, the “Results” value is recorded as “Form C”. Regarding `[2H]C([2H])([2H])[C@@H]1CCc2c(Oc3c(Cl)cc(-n4nc(C#N)c(=O)[nH]c4=O)cc3Cl)n[nH]c(=O)c21` [Form R, (R)-2-(3,5-dichloro-4-((7-(methyl-d3)-1-oxo-2,5,6,7-tetrahydro-1H-cyclopenta [d]pyridazin-4-yl)oxy)phenyl)-3,5-dioxo-2,3,4,5-tetrahydro-1,2,4-triazine-6-carbonitrile], under “target temperature 200° C.”, the “Results” value is on record as “Form C”. With `[2H]C([2H])([2H])[C@@H]1CCc2c(Oc3c(Cl)cc(-n4nc(C#N)c(=O)[nH]c4=O)cc3Cl)n[nH]c(=O)c21` [Form V, (R)-2-(3,5-dichloro-4-((7-(methyl-d3)-1-oxo-2,5,6,7-tetrahydro-1H-cyclopenta [d]pyridazin-4-yl)oxy)phenyl)-3,5-dioxo-2,3,4,5-tetrahydro-1,2,4-triazine-6-carbonitrile], the “crystal form after thermal crystal transformation” value (heated to 150° C.) is given as “Form V”.
